Where “and” joins values, the source holds several entries; their conditions need not be identical. Identical values can stand only once. Like-named read-outs stand apart in the source and are kept apart here.
Columns and labels:
Assay in all cases: Fluorescence polarization assay, FAM-labeled [AG]10 RNA and recombinant eIF4A
Assay type in all cases: binding
[1] = biological target: T1, O. sinensis eIF4A His154Gly (Ophiocordyceps sinensis, UniProt A0A8H4LTQ8, H154G); conditions: for Kd: [AG]10 10 nM, compound 50 µM, read-out: Kd between eIF4A protein and RNA
T1 sequence (A0A8H4LTQ8 1-397 H154G): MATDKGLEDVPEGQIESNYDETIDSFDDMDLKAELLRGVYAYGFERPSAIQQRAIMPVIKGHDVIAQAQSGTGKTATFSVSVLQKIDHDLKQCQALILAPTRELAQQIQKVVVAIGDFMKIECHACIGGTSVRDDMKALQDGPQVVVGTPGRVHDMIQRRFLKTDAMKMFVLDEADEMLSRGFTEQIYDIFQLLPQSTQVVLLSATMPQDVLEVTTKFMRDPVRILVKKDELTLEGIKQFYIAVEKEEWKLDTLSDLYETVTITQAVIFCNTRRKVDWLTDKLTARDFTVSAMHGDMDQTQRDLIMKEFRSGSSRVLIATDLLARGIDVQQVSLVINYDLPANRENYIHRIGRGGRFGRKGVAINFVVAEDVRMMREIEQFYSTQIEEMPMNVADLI

[2] = biological target: T2, H. sapiens eIF4A1 WT Phe163 (Homo sapiens, UniProt P60842); conditions: RocA 50 µM
T2 construct: His tag (N); made in house; host or cells: E. coli BL21 Star (DE3)

[3] = biological target: T3, O. sinensis eIF4A WT His154 (Ophiocordyceps sinensis, UniProt A0A8H4LTQ8); conditions: for Kd: [AG]10 10 nM, compound 50 µM, read-out: Kd between eIF4A protein and RNA
T3 sequence (A0A8H4LTQ8 1-397): T1 sequence (A0A8H4LTQ8 1-397 H154G)

[4] = [AG]10, ADP + Pi, RocA 50 µM, protein 0.01 μM
[5] = [AG]10, ADP + Pi, RocA 50 µM, protein 0.05 μM
[6] = [AG]10, ADP + Pi, RocA 50 µM, protein 0.075 μM
[7] = [AG]10, ADP + Pi, RocA 50 µM, protein 0.1 μM
[8] = [AG]10, ADP + Pi, RocA 50 µM, protein 0.5 μM
[9] = [AG]10, ADP + Pi, RocA 50 µM, protein 0.75 μM
[10] = [AG]10, ADP + Pi, RocA 50 µM, protein 1 μM
[11] = [AG]10, ADP + Pi, RocA 50 µM, protein 5 μM
[12] = [AG]10, ADP + Pi, RocA 50 µM, protein 7.5 μM
[13] = [AG]10, ADP + Pi, RocA 50 µM, protein 10 μM
[14] = [AG]10, ADP + Pi, RocA 50 µM, protein 25 μM
[15] = [AG]10, ADP + Pi, RocA 50 µM, protein 50 μM
[16] = [AG]10 RNA, AMP-PNP, RocA, protein concentration 0.01 μM
[17] = [AG]10 RNA, AMP-PNP, RocA, protein concentration 0.05 μM
[18] = [AG]10 RNA, AMP-PNP, RocA, protein concentration 0.075 μM
[19] = [AG]10 RNA, AMP-PNP, RocA, protein concentration 0.1 μM
[20] = [AG]10 RNA, AMP-PNP, RocA, protein concentration 0.5 μM
[21] = [AG]10 RNA, AMP-PNP, RocA, protein concentration 0.75 μM
[22] = [AG]10 RNA, AMP-PNP, RocA, protein concentration 1 μM
[23] = [AG]10 RNA, AMP-PNP, RocA, protein concentration 5 μM
[24] = [AG]10 RNA, AMP-PNP, RocA, protein concentration 7.5 μM
[25] = [AG]10 RNA, AMP-PNP, RocA, protein concentration 10 μM
[26] = [AG]10 RNA, AMP-PNP, RocA, protein concentration 25 μM
[27] = [AG]10 RNA, AMP-PNP, RocA, protein concentration 50 μM

T2 sequence (P60842 whole entry): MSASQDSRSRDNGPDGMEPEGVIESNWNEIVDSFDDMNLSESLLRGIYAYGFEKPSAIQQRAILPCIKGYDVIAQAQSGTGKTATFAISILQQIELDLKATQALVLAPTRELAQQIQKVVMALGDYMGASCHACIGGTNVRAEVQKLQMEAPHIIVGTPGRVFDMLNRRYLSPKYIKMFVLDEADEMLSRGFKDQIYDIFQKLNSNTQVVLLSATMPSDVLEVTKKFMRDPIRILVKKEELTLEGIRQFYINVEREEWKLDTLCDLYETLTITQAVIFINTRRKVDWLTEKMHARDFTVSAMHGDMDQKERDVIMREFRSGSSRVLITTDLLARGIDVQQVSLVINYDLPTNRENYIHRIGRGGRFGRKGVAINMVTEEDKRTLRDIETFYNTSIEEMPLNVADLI

COc1ccc([C@@]23Oc4cc(OC)cc(OC)c4[C@]2(O)[C@H](O)[C@H](C(=O)N(C)C)[C@H]3c2ccccc2)cc1 [RocA, rocaglamide A]
Kd ([1]; ADP + Pi (1 mM each)): 850 ± 120 nM | Kd ([1]; AMP-PNP 1 mM): 370 ± 46 nM | fluorescence polarization, Mean [1, 4]: 0.06011 | fluorescence polarization, replicates [1, 4]: -0.02732 | fluorescence polarization, Mean [1, 5]: 0.1202 | fluorescence polarization, replicates [1, 5]: 0.1284 | fluorescence polarization, Mean [1, 6]: 0.1339 | fluorescence polarization, replicates [1, 6]: 0.1284 and 0.1612 and 0.112 | fluorescence polarization, Mean [1, 7]: 0.1639 | fluorescence polarization, replicates [1, 7]: 0.2104 and 0.1284 and 0.153 | fluorescence polarization, Mean [1, 8]: 0.6885 | fluorescence polarization, replicates [1, 8]: 0.6858 and 0.5956 | fluorescence polarization, Mean [1, 9]: 0.6093 | fluorescence polarization, replicates [1, 9]: 0.5874 and 0.6038 | fluorescence polarization, Mean [1, 10]: 0.8743 | fluorescence polarization, replicates [1, 10]: 0.9071 and 0.9481 | fluorescence polarization, Mean [1, 11]: 1.648 | fluorescence polarization, replicates [1, 11]: 1.628 and 1.6612 and 1.653 | fluorescence polarization, Mean [1, 12]: 1.617 | fluorescence polarization, replicates [1, 12]: 1.6776 and 1.53 and 1.645 | fluorescence polarization, Mean [1, 13]: 1.686 | fluorescence polarization, replicates [1, 13]: 1.612 and 1.735 and 1.71 | fluorescence polarization, Mean [1, 14]: 1.735 | fluorescence polarization, replicates [1, 14]: 1.76 and 1.751 and 1.694 | fluorescence polarization, Mean [1, 15]: 1.7459 | fluorescence polarization, replicates [1, 15]: 1.735 and 1.76 and 1.743 | Fluorescence polarization, Replicate 1-3 [1, 16]: 0.04372 and 0.1339 and -0.005464 | fluorescence polarization, Mean [1, 16]: 0.05738 | Fluorescence polarization, Replicate 1-3 [1, 17]: 0.06831 and 0.1421 and -0.03005 | fluorescence polarization, Mean [1, 17]: 0.06011 | Fluorescence polarization, Replicate 1-3 [1, 18]: 0.06831 and 0.1339 and 0.1503 | fluorescence polarization, Mean [1, 18]: 0.1175 | Fluorescence polarization, Replicate 1-3 [1, 19]: 0.1667 and 0.0847 and 0.1995 | fluorescence polarization, Mean [1, 19]: 0.1503 | Fluorescence polarization, Replicate 1-3 [1, 20]: 1.142 and 1.044 and 0.9536 | Fluorescence polarization, Replicate 1-3 [1, 21]: 0.9454 and 1.044 and 0.9126 | fluorescence polarization, Mean [1, 21]: 0.9672 | Fluorescence polarization, Replicate 1-3 [1, 22]: 1.175 and 1.167 and 1.109 | Fluorescence polarization, Replicate 1-3 [1, 23]: 1.5847 and 1.5765 and 1.601 | fluorescence polarization, Mean [1, 23]: 1.587 | Fluorescence polarization, Replicate 1-3 [1, 24]: 1.511 and 1.56 and 1.601 | fluorescence polarization, Mean [1, 24]: 1.557 | Fluorescence polarization, Replicate 1-3 [1, 25]: 1.675 and 1.56 and 1.667 | fluorescence polarization, Mean [1, 25]: 1.634 | Fluorescence polarization, Replicate 1-3 [1, 26]: 1.5847 and 1.699 and 1.626 | fluorescence polarization, Mean [1, 26]: 1.637 | Fluorescence polarization, Replicate 1-3 [1, 27]: 1.65 and 1.626 and 1.691 | fluorescence polarization, Mean [1, 27]: 1.656 | fluorescence polarization, Mean ([2]; ADP + Pi, protein 0.01 μM): 0.08197 | fluorescence polarization, Mean ([2]; ADP + Pi, protein 0.05 μM): 0.09836 | fluorescence polarization, Mean ([2]; ADP + Pi, protein 0.075 μM): 0.06831 | fluorescence polarization, Mean ([2]; ADP + Pi, protein 0.1 μM): 0.1776 | fluorescence polarization, Mean ([2]; ADP + Pi, protein 0.5 μM): 0.5956 | fluorescence polarization, Mean ([2]; ADP + Pi, protein 0.75 μM): 0.735 | fluorescence polarization, Mean ([2]; ADP + Pi, protein 1 μM): 0.6831 | fluorescence polarization, Mean ([2]; ADP + Pi, protein 5 μM): 0.9481 | fluorescence polarization, Mean ([2]; ADP + Pi, protein 7.5 μM): 0.8825 | fluorescence polarization, Mean ([2]; ADP + Pi, protein 10 μM): 0.9699 | fluorescence polarization, Mean ([2]; ADP + Pi, protein 25 μM): 1.044 | fluorescence polarization, Mean ([2]; ADP + Pi, protein 50 μM): 1.0929 | fluorescence polarization, Mean ([2]; AMP-PNP, protein 0.01 μM): 0.2213 | fluorescence polarization, Mean ([2]; AMP-PNP, protein 0.05 μM): 0.7268 | fluorescence polarization, Mean ([2]; AMP-PNP, protein 0.075 μM): 0.4973 | fluorescence polarization, Mean ([2]; AMP-PNP, protein 0.1 μM): 0.765 | fluorescence polarization, Mean ([2]; AMP-PNP, protein 0.5 μM): 1.016 | fluorescence polarization, Mean ([2]; AMP-PNP, protein 0.75 μM): 1.0082 | fluorescence polarization, Mean ([2]; AMP-PNP, protein 1 μM): 1.049 | fluorescence polarization, Mean ([2]; AMP-PNP, protein 5 μM): 1.046 | fluorescence polarization, Mean ([2]; AMP-PNP, protein 7.5 μM): 1.123 | fluorescence polarization, Mean ([2]; AMP-PNP, protein 10 μM): 1.156 | fluorescence polarization, Mean ([2]; AMP-PNP, protein 25 μM): 1.142 | fluorescence polarization, Mean ([2]; AMP-PNP, protein 50 μM): 1.15 | Kd ([3]; ADP + Pi (1 mM each)): ~110 nM and 110 nM | Kd ([3]; AMP-PNP 1 mM): 90 ± 14 nM | fluorescence polarization, replicates [3, 4]: 0.1995 | fluorescence polarization, Mean [3, 5]: 0.4699 | fluorescence polarization, replicates [3, 5]: 0.5109 and 0.4536 | fluorescence polarization, Mean [3, 6]: 0.6066 | fluorescence polarization, replicates [3, 6]: 0.6585 | fluorescence polarization, Mean [3, 7]: 0.7049 | fluorescence polarization, replicates [3, 7]: 0.7732 and 0.6667 | fluorescence polarization, Mean [3, 8]: 1.713 | fluorescence polarization, replicates [3, 8]: 1.781 and 1.675 and 1.683 | fluorescence polarization, Mean [3, 9]: 1.757 | fluorescence polarization, replicates [3, 9]: 1.724 (2×) and 1.8224 | fluorescence polarization, Mean [3, 10]: 1.82 | fluorescence polarization, replicates [3, 10]: 1.8224 (2×) and 1.814 | fluorescence polarization, Mean [3, 11]: 1.888 | fluorescence polarization, replicates [3, 11]: 1.913 and 1.872 and 1.88 | fluorescence polarization, Mean [3, 12]: 1.883 | fluorescence polarization, replicates [3, 12]: 1.855 and 1.904 and 1.888 | fluorescence polarization, Mean [3, 13]: 1.893 | fluorescence polarization, replicates [3, 13]: 1.921 and 1.896 and 1.863 | fluorescence polarization, Mean [3, 14]: 1.861 | fluorescence polarization, replicates [3, 14]: 1.863 and 1.913 and 1.806 | fluorescence polarization, Mean [3, 15]: 1.801 | fluorescence polarization, replicates [3, 15]: 1.814 and 1.798 and 1.79 | Fluorescence polarization, Replicate 1-3 [3, 16]: 0.1557 and 0 | fluorescence polarization, Mean [3, 16]: 0.09016 | Fluorescence polarization, Replicate 1-3 [3, 17]: 0.5246 (2×) and 0.418 | fluorescence polarization, Mean [3, 17]: 0.4891 | Fluorescence polarization, Replicate 1-3 [3, 18]: 0.5328 and 0.6803 | fluorescence polarization, Mean [3, 18]: 0.6175 | Fluorescence polarization, Replicate 1-3 [3, 19]: 0.8689 and 0.8033 and 0.7049 | fluorescence polarization, Mean [3, 19]: 0.7923 | Fluorescence polarization, Replicate 1-3 [3, 20]: 1.713 (2×) and 1.631 | fluorescence polarization, Mean [3, 20]: 1.686 | Fluorescence polarization, Replicate 1-3 [3, 21]: 1.795 and 1.7459 and 1.77 | fluorescence polarization, Mean [3, 21]: 1.77 | Fluorescence polarization, Replicate 1-3 [3, 22]: 1.861 and 1.836 and 1.779 | fluorescence polarization, Mean [3, 22]: 1.825 | Fluorescence polarization, Replicate 1-3 [3, 23]: 1.787 and 1.828 and 1.811 | fluorescence polarization, Mean [3, 23]: 1.809 | Fluorescence polarization, Replicate 1-3 [3, 24]: 1.869 and 1.877 and 1.844 | fluorescence polarization, Mean [3, 24]: 1.863 | Fluorescence polarization, Replicate 1-3 [3, 25]: 1.836 and 1.7459 and 1.795 | fluorescence polarization, Mean [3, 25]: 1.792 | Fluorescence polarization, Replicate 1-3 [3, 26]: 1.902 and 1.77 and 1.779 | fluorescence polarization, Mean [3, 26]: 1.817 | Fluorescence polarization, Replicate 1-3 [3, 27]: 1.852 and 1.787 and 1.77 | fluorescence polarization, Mean [3, 27]: 1.803

Source: PMC9977294, “A parasitic fungus employs mutated eIF4A to survive on rocaglate-synthesizing Aglaia plants” (eLife, 2023)
